Results on 25 compounds are retold here after patent publication US9469631B2 (Boehringer Ingelheim International GmbH, priority 2012, dated 2016).

pEC50: −log10 of the molar value.

Sequence of human GPR119 (Q8TDV5 whole entry): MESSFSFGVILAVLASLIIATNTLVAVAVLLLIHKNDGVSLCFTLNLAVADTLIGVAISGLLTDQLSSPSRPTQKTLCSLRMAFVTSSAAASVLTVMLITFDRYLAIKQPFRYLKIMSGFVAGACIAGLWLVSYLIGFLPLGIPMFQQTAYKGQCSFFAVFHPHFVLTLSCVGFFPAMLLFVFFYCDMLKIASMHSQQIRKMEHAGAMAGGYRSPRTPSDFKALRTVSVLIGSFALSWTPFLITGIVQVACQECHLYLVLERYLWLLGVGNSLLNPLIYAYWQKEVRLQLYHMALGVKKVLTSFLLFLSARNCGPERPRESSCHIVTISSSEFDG

The target of the test is human GPR119 (Homo sapiens (Human), UniProt Q8TDV5). Nature of the test: AlphaScreen cAMP assay in MIN6 cells stably transfected with human GPR119. Type of test: cell-based. The note with it: Min-6/hGPR119 cells, 45 min incubation at room temperature. The method in brief:
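MIN6 cells stably expressing human GPR119 were seeded at 10000 cells/well for 24 h. Compounds were then applied in pH 7.4 buffer with 0.5 mM IBMX, 0.1% BSA and 1% DMSO for 45 min at about 20 °C. Intracellular cAMP was measured by AlphaScreen.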
(In Alpha technology, singlet oxygen from a donor bead excites a nearby acceptor bead.)
A word on the pEC50: it is the negative decadic logarithm of the EC50, by convention in mol/L. The low end stands for a high EC50, the high end for a low EC50. As to `CC(C)(C)OC(=O)N1CCC(N(C(=O)c2ccc(-c3ccc(N4CCOCC4)cc3)cc2)C2CC2)CC1` [Example 101, 4-[Cyclopropyl-(4′-morpholin-4-yl-biphenyl-4-carbonyl)-amino]-piperidine-1-carboxylic acid tert-butyl ester], the pEC50 is 6.90.
The figure for `CC(C)(C)OC(=O)N1CCC(N(C(=O)c2ccc(-c3ccsc3)cc2)C2CC2)CC1` [Example 80, 4-[Cyclopropyl-(4-thiophen-3-yl-benzoyl)-amino]-piperidine-1-carboxylic acid tert-butyl ester] is 6.46; for `CC(C)(C)OC(=O)N1CCC(N(C(=O)c2ccc(-c3ccc(C#N)nc3)cc2)C2CC2)CC1` [Example 100, 4-{[4-(6-Cyano-pyridin-3-yl)-benzoyl]-cyclopropyl-amino}-piperidine-1-carboxylic acid tert-butyl ester] it is 7.47; for `O=C(Oc1ccc(F)cc1)N1CCC(N(C(=O)c2ccc(-c3cnco3)cc2)C2CC2)CC1` [Example 119, 4-[Cyclopropyl-(4-oxazol-5-yl-benzoyl)-amino]-piperidine-1-carboxylic acid 4-fluoro-phenyl ester] it is 7.05.
The figure for `CC1CC(N(C(=O)c2ccc(-c3cnco3)cc2)C2CC2)CCN1C(=O)OC(C)(C)C` (stereo not shown) [Example 1, 4-[Cyclopropyl-(4-oxazol-5-yl-benzoyl)-amino]-2-methyl-piperidine-1-carboxylic acid tert-butyl ester] is 6.80; for `COc1ccc(OC(=O)N2CCC(N(C(=O)c3ccc(-c4cnco4)cc3)C3CC3)CC2)cc1` [Example 120, 4-[Cyclopropyl-(4-oxazol-5-yl-benzoyl)-amino]-piperidine-1-carboxylic acid 4-methoxy-phenyl ester] it is 7.15; for `CC1(OC(=O)N2CCC(N(C(=O)c3ccc(-c4ccncc4C#N)cc3)C3CC3)CC2)CC1` [Example 32, 4-{[4-(3-Cyano-pyridin-4-yl)-benzoyl]-cyclopropyl-amino}-piperidine-1-carboxylic acid 1-methyl-cyclopropyl ester] it is 7.72.
The figure for `CC(C)(C)OC(=O)N1CCC(N(C(=O)c2ccc(-n3cnc(-c4ccccc4)c3)c(Cl)c2)C2CC2)CC1` [Example 81, 4-{[3-Chloro-4-(4-phenyl-imidazol-1-yl)-benzoyl]-cyclopropyl-amino}-piperidine-1-carboxylic acid tert-butyl ester] is 6.83.
Turning to `CC(C)(C)OC(=O)N1CCC(N(C(=O)c2ccc(-c3ccc(S(C)(=O)=O)cc3F)cc2)C2CC2)CC1` [Example 110, 4-[Cyclopropyl-(2′-fluoro-4′-methanesulfonyl-biphenyl-4-carbonyl)-amino]-piperidine-1-carboxylic acid tert-butyl ester], the pEC50 was 7.36.
The figure for `CC(C)(C)OC(=O)N1CCC(N(C(=O)c2ccc(-c3ccc(S(C)(=O)=O)cc3)cc2)C2CC2)CC1` [Example 93, 4-[Cyclopropyl-(4′-methanesulfonyl-biphenyl-4-carbonyl)-amino]-piperidine-1-carboxylic acid tert-butyl ester] is 6.75; for `O=C(OCc1ccccc1)N1CCC(N(C(=O)c2ccc(-c3cnco3)cc2)C2CC2)CC1` [Example 126, 4-[Cyclopropyl-(4-oxazol-5-yl-benzoyl)-amino]-piperidine-1-carboxylic acid benzyl ester] it is 6.89.
The figure for `CCCOC(=O)N1CCC(N(C(=O)c2ccc(-c3cnco3)cc2)C2CC2)CC1` [Example 123, 4-[Cyclopropyl-(4-oxazol-5-yl-benzoyl)-amino]-piperidine-1-carboxylic acid propyl ester] is 7.10; for `CC(C)(C)OC(=O)N1CCC(N(C(=O)c2ccc(-c3ccno3)cc2)C2CC2)CC1` [Example 57, 4-[Cyclopropyl-(4-isoxazol-5-yl-benzoyl)-amino]-piperidine-1-carboxylic acid tert-butyl ester] it is 7.00; for `Cc1ccc(-c2ccc(C(=O)N(C3CC3)C3CCN(C(=O)OC(C)(C)C)CC3)cc2)nn1` [Example 16, 4-{Cyclopropyl-[4-(6-methyl-pyridazin-3-yl)-benzoyl]-amino}-piperidine-1-carboxylic acid tert-butyl ester] it is 7.12.
The compound `CC(C)(C)OC(=O)N1CCC(N(C(=O)c2ccc(-c3ccc(S(C)(=O)=O)cn3)cc2)C2CC2)CC1` [Example 21, 4-{Cyclopropyl-[4-(5-methanesulfonyl-pyridin-2-yl)-benzoyl]-amino}-piperidine-1-carboxylic acid tert-butyl ester] gave a negative logarithm of the EC50 (pEC50) of 7.13.
The figure for `Cn1cncc1-c1ccc(C(=O)N(C2CC2)C2CCN(C(=O)OC(C)(C)C)CC2)cc1` [Example 42, 4-{Cyclopropyl-[4-(3-methyl-3H-imidazol-4-yl)-benzoyl]-amino}-piperidine-1-carboxylic acid tert-butyl ester] is 6.82.
The figure for `COc1cc(C(=O)N(C2CC2)C2CCN(C(=O)OC(C)(C)C)CC2)ccc1-c1cnco1` [Example 9, 4-[Cyclopropyl-(3-methoxy-4-oxazol-5-yl-benzoyl)-amino]-piperidine-1-carboxylic acid tert-butyl ester] is 6.19; for `Cn1cc(-c2ccc(C(=O)N(C3CC3)C3CCN(C(=O)OC(C)(C)C)CC3)cc2)cn1` [Example 13] it is 6.37.
Compound `Cc1cn(-c2ccc(C(=O)N(C3CC3)C3CCN(C(=O)OC(C)(C)C)CC3)cc2)c(C)n1` [Example 55, 4-{Cyclopropyl-[4-(2,4-dimethyl-imidazol-1-yl)-benzoyl]-amino}-piperidine-1-carboxylic acid tert-butyl ester] showed a pEC50 of 6.03.
In turn, `CC(C)(C)OC(=O)N1CCC(N(C(=O)c2ccc(-c3cnco3)c(F)c2)C2CC2)CC1` [Example 28, 4-[Cyclopropyl-(3-fluoro-4-oxazol-5-yl-benzoyl)-amino]-piperidine-1-carboxylic acid tert-butyl ester] showed a pEC50 of 8.10.
In turn, `CC(C)(C)OC(=O)N1CCC(N(C(=O)c2ccc(-c3cnco3)cc2F)C2CC2)CC1` [Example 35, 4-[Cyclopropyl-(2-fluoro-4-oxazol-5-yl-benzoyl)-amino]-piperidine-1-carboxylic acid tert-butyl ester] showed a negative-log EC50 (pEC50) of 7.35.
In the case of `CC(C)(C)OC(=O)N1CCC(N(C(=O)c2ccc(-n3cnnn3)cc2)C2CC2)CC1` [Example 22, 4-[Cyclopropyl-(4-tetrazol-1-yl-benzoyl)-amino]-piperidine-1-carboxylic acid tert-butyl ester], the pEC50 is 6.86.
The figure for `Cc1ncoc1-c1ccc(C(=O)N(C2CC2)C2CCN(C(=O)OC(C)(C)C)CC2)cc1` [Example 10, 4-{Cyclopropyl-[4-(4-methyl-oxazol-5-yl)-benzoyl]-amino}-piperidine-1-carboxylic acid tert-butyl ester] is 7.12; for `CC(=O)Nc1nnc(-c2ccc(C(=O)N(C3CC3)C3CCN(C(=O)OC(C)(C)C)CC3)cc2)s1` [Example 77, 4-{[4-(5-Acetylamino-[1,3,4]thiadiazol-2-yl)-benzoyl]-cyclopropyl-amino}-piperidine-1-carboxylic acid tert-butyl ester] it is 6.40.
Take `O=C(OC1CCCC1)N1CCC(N(C(=O)c2ccc(-c3cnco3)cc2)C2CC2)CC1` [Example 128, 4-[Cyclopropyl-(4-oxazol-5-yl-benzoyl)-amino]-piperidine-1-carboxylic acid cyclopentyl ester]: the negative logarithm of the EC50 (pEC50) is 7.47.
